# Measured values reported in US8952024B2, “Herbicidal pyrimidone derivatives” (E I du Pont de Nemours and Company, priority 2009, dated 2015).
# Experiments:
# Assay type in all cases: in vivo
# [1] = system: rice (Oryza sativa); assay: Test B flooded paddy test; details: for Plant response rating, Flood, Rice: 250 g ai/ha, flooded paddy test, visual rating on 0 to 100 scale (0 no effect, 100 complete control) after 13 to 15 days; for Plant response rating, Rice: Flood (flooded paddy test), 13 to 15 days
# Summary of the method: (§1)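 Visual scores run from 0 (no effect) to 100 (complete control), assigned by comparison with controls 13 to 15 days after treatment. Test compounds went straight into water standing 3 cm above the soil, around plants at the 2-leaf stage kept in a greenhouse.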
# [2] = system: barnyardgrass (Echinochloa crus-galli); assay: Test B flooded paddy test; details: for Plant response rating, Flood, Barnyardgrass: 250 g ai/ha, flooded paddy test, visual rating on 0 to 100 scale (0 no effect, 100 complete control) after 13 to 15 days; for Plant response rating, Barnyardgrass: Flood (flooded paddy test), 13 to 15 days
# Summary of the method: as §1
# [3] = system: ducksalad (Heteranthera limosa); assay: Test B flooded paddy test; details: for Plant response rating, Flood, Ducksalad: 250 g ai/ha, flooded paddy test, visual rating on 0 to 100 scale (0 no effect, 100 complete control) after 13 to 15 days; for Plant response rating, Ducksalad: Flood (flooded paddy test), 13 to 15 days
# Summary of the method: as §1
# [4] = system: umbrella sedge (Cyperus difformis); assay: Test B flooded paddy test; details: for Plant response rating, Flood, Sedge, Umbrella: 250 g ai/ha, flooded paddy test, visual rating on 0 to 100 scale (0 no effect, 100 complete control) after 13 to 15 days; for Plant response rating, Sedge, Umbrella: Flood (flooded paddy test), 13 to 15 days
# Summary of the method: as §1
# [5] = system: corn (Zea mays); assay: Test A pre-/postemergence plant response; details: for Corn plant response rating: visual injury, 0 to 100 scale (0 no effect, 100 complete control), approx. ten days
# Summary of the method: (§2)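 Formulated test chemicals (non-phytotoxic solvent, surfactant) were sprayed onto soil right after planting and simultaneously onto young plants at one to two leaves, 2 to 10 cm tall. Plants stayed in the greenhouse about ten days; injury was then visually scored against untreated controls, from 0 (no effect) to 100 (complete control).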
# [6] = system: velvetleaf (Abutilon theophrasti); assay: Test A pre-/postemergence plant response
# Summary of the method: as §2
# [7] = system: large crabgrass (Digitaria sanguinalis); assay: Test A pre-/postemergence plant response; details: for Crabgrass, Large plant response rating: visual injury, 0 to 100 scale (0 no effect, 100 complete control), approx. ten days
# Summary of the method: as §2
# [8] = system: barnyardgrass (Echinochloa crus-galli); assay: Test A pre-/postemergence plant response; details: for Barnyardgrass plant response rating: visual injury, 0 to 100 scale (0 no effect, 100 complete control), approx. ten days
# Summary of the method: as §2
# [9] = system: morningglory (Ipomoea spp.); assay: Test A pre-/postemergence plant response
# Summary of the method: as §2
# [10] = system: wheat (Triticum aestivum); assay: Test A pre-/postemergence plant response
# Summary of the method: as §2
# [11] = system: pigweed (Amaranthus retroflexus); assay: Test A pre-/postemergence plant response
# Summary of the method: as §2
# [12] = system: giant foxtail (Setaria faberii); assay: Test A pre-/postemergence plant response
# Summary of the method: as §2
# [13] = 62 g ai/ha, scale of 0 to 100 where 0 is no effect and 100 is complete control
# [14] = Postemergence, 125 g ai/ha, 0 to 100 scale where 0 is no effect and 100 is complete control
# [15] = Preemergence, 125 g ai/ha, 0 to 100 scale, 0 = no effect, 100 = complete control
# [16] = Preemergence, 500 g ai/ha, 0 to 100 scale, 0 = no effect, 100 = complete control
# [17] = Postemergence, 500 g ai/ha, visual injury, 0 to 100 scale (0 no effect, 100 complete control), approx. ten days
# [18] = 125 g ai/ha, scale 0 to 100, 0 is no effect, 100 is complete control
# [19] = Flood, 31 g ai/ha, scale 0 to 100 (0 no effect, 100 complete control)
# [20] = Preemergence, 125 g ai/ha, 0 to 100 scale where 0 is no effect and 100 is complete control, approximately ten days
# [21] = Postemergence, 125 g ai/ha, visual injury, 0 to 100 scale (0 no effect, 100 complete control), approx. ten days
compound,measurement,setting,value
CCn1c(-c2cccc(C)c2)ncc(C(=O)C2=C(O)C3CCC(C3)C2=O)c1=O (stereo not shown) [Compound 231],"Plant response rating, Flood, Rice",[1],0
same,"Plant response rating, Rice",[1]; [13],0
same,"Plant response rating, Flood, Barnyardgrass",[2],40
same,"Plant response rating, Barnyardgrass",[2]; [13],40
same,"Plant response rating, Flood, Ducksalad",[3],0
same,"Plant response rating, Ducksalad",[3]; [13],0
same,"Plant response rating, Flood, Sedge, Umbrella",[4],75
same,"Plant response rating, Sedge, Umbrella",[4]; [13],0
same,"Plant response rating, Corn",[5]; [14],0
same,Corn plant response rating,"[5]; Postemergence, 500 g ai/ha",40
same,"Plant response rating, Corn",[5]; [15],0
same,"Plant response rating, Corn",[5]; [16],20
same,"Plant response rating, Velvetleaf",[6]; [14],90
same,Velvetleaf plant response rating,[6]; [17],100
same,"Plant response rating, Velvetleaf",[6]; [15],50
same,"Plant response rating, Velvetleaf",[6]; [16],60
same,"Plant response rating, Crabgrass, Large",[7]; [14],50
same,"Crabgrass, Large plant response rating","[7]; Postemergence, 500 g ai/ha",70
same,"Plant response rating, Crabgrass, Large",[7]; [15],40
same,"Plant response rating, Crabgrass, Large",[7]; [16],90
same,"Plant response rating, Barnyardgrass",[8]; [14],70
same,Barnyardgrass plant response rating,"[8]; Postemergence, 500 g ai/ha",90
same,"Plant response rating, Barnyardgrass",[8]; [15],0
same,"Plant response rating, Barnyardgrass",[8]; [16],60
same,"Plant response rating, Morningglory",[9]; [14],90
same,Morningglory plant response rating,[9]; [17],100
same,"Plant response rating, Morningglory",[9]; [15],10
same,"Plant response rating, Morningglory",[9]; [16],80
same,"Plant response rating, Wheat",[10]; [14],0
same,Wheat plant response rating,[10]; [17],0
same,"Plant response rating, Wheat",[10]; [15],0
same,"Plant response rating, Wheat",[10]; [16],0
same,"Plant response rating, Pigweed",[11]; [14],80
same,Pigweed plant response rating,[11]; [17],90
same,"Plant response rating, Pigweed",[11]; [15],50
same,"Plant response rating, Pigweed",[11]; [16],80
same,"Plant response rating, Foxtail, Giant",[12]; [14],60
same,"Foxtail, Giant plant response rating",[12]; [17],80
same,"Plant response rating, Foxtail, Giant",[12]; [15],0
same,"Plant response rating, Foxtail, Giant",[12]; [16],60
O=C(C1=C(O)C2CCC(C2)C1=O)c1cnc(-c2ccccc2)n(C2CCCCC2)c1=O (stereo not shown) [Compound 248],"Plant response rating, Flood, Rice",[1],0
same,"Plant response rating, Rice",[1]; [13],0
same,"Plant response rating, Rice",[1]; [18],0
same,Rice plant response rating,[1]; [19],0
same,"Plant response rating, Flood, Barnyardgrass",[2],40
same,"Plant response rating, Barnyardgrass",[2]; [13],0
same,"Plant response rating, Barnyardgrass",[2]; [18],0
same,Barnyardgrass plant response rating,[2]; [19],0
same,"Plant response rating, Flood, Ducksalad",[3],90
same,"Plant response rating, Ducksalad",[3]; [13],80
same,"Plant response rating, Ducksalad",[3]; [18],80
same,Ducksalad plant response rating,[3]; [19],75
same,"Plant response rating, Flood, Sedge, Umbrella",[4],85
same,"Plant response rating, Sedge, Umbrella",[4]; [13],65
same,"Plant response rating, Sedge, Umbrella",[4]; [18],75
same,"Sedge, Umbrella plant response rating",[4]; [19],50
same,"Plant response rating, Corn",[5]; [14],0
same,Corn plant response rating,"[5]; Postemergence, 500 g ai/ha",30
same,"Plant response rating, Corn",[5]; [20],0
same,"Plant response rating, Corn",[5]; [16],20
same,"Plant response rating, Velvetleaf",[6]; [21],100
same,Velvetleaf plant response rating,[6]; [17],100
same,"Plant response rating, Velvetleaf",[6]; [20],20
same,"Plant response rating, Velvetleaf",[6]; [16],60
same,"Plant response rating, Crabgrass, Large",[7]; [14],50
same,"Crabgrass, Large plant response rating","[7]; Postemergence, 500 g ai/ha",80
same,"Plant response rating, Crabgrass, Large",[7]; [20],10
same,"Plant response rating, Crabgrass, Large",[7]; [16],70
same,"Plant response rating, Barnyardgrass",[8]; [14],90
same,Barnyardgrass plant response rating,"[8]; Postemergence, 500 g ai/ha",100
same,"Plant response rating, Barnyardgrass",[8]; [20],0
same,"Plant response rating, Barnyardgrass",[8]; [16],30
same,"Plant response rating, Morningglory",[9]; [21],100
same,Morningglory plant response rating,[9]; [17],100
same,"Plant response rating, Morningglory",[9]; [20],0
same,"Plant response rating, Morningglory",[9]; [16],40
same,"Plant response rating, Wheat",[10]; [21],0
same,Wheat plant response rating,[10]; [17],0
same,"Plant response rating, Wheat",[10]; [20],0
same,"Plant response rating, Wheat",[10]; [16],20
same,"Plant response rating, Pigweed",[11]; [21],80
same,Pigweed plant response rating,[11]; [17],90
same,"Plant response rating, Pigweed",[11]; [20],0
same,"Plant response rating, Pigweed",[11]; [16],40
same,"Plant response rating, Foxtail, Giant",[12]; [21],50
same,"Foxtail, Giant plant response rating",[12]; [17],100
same,"Plant response rating, Foxtail, Giant",[12]; [20],10
same,"Plant response rating, Foxtail, Giant",[12]; [16],20
